From patent publication US10369165B2, “Composition containing active components of Dracocephalum moldavica L. against myocardial ischemia-reperfusion injury” (Nanjing Ruiying Runze Biopharmaceutical Technology Co., Inc., priority 2014, dated 2019)

Columns and labels:
[1] = system: rat H9c2 cardiac myocytes; test: MTT cell activity of H9c2 cardiac myocytes after hypoxia/reoxygenation injury; type: cell-based; conditions: total 30 μM, 12 h preincubation, hypoxia 6 h, reoxygenation 5 h
Procedure: Rat cardiac myocytes H9c2 in logarithmic growth phase are taken. After digestion, the cells are resuspended with DMEM medium (containing 10% FBS), then inoculated into 96-well plate and normally cultured in incubator of 37° C. and 5% CO2. After entering logarithmic growth phase, the cells are divided into following groups for experiment: (1) normal culture group (Control group): during the experiment, cells are normally cultured in incubator of 37° C. and 5% CO2; (2) […] Model group (Model group): normal culture fluid for the experimental cells in logarithmic growth phase is replaced with glucose-free Earle's solution which has been previously saturated with mixture of 95% N2+5% CO2 for 1 hour. Then the cells are cultured in hypoxic condition for 6 h at 37° C. in constant-temperature incubator introduced with the mixture of 95% N2+5% CO2. Then the hypoxia treated cells are subjected to reoxygenation in normal condition for 5 h with the high glucose medium DMEM (containing 10% FBS) which has been previously saturated with mixture of 95% air+5% CO2. (3) pre-treated compatible group of luteilon, kaempferol and luteolin-7-O-glucoside: H9c2 cells are preincubated for 12 h with luteilon, kaempferol and luteolin-7-O-glucoside combined in different ratios. Then, the normal culture solution is replaced with glucose-free Earle's solution which has been previously saturated with mixture of 95% N2+5% CO2 for 1 hour. After anoxic treatment for 6 h with N2 anoxic tank, the cells are subjected to reoxygenation for 5 h in normal culture condition with normal culture solution; meanwhile the cells are incubated with the administration of each compatible drug. After treatment, 20 μg/ml MTT is added, and each experimental group is cultured for 4 h, then MTT is solved in 150 μl DMSO. OD of each well is read by ELISA meter at wavelength of 490 nm, and activity of cells is determined.

[2] = system: rat primary cardiac myocytes; test: pH of culture supernatant of rat primary cardiac myocytes injured by nitrogen hypoxia/reoxygenation; type: cell-based; conditions: 30 μM; culture medium supernatant; hypoxia 6 h, reoxygenation 5 h
Procedure: Experiment method: Wistar ventricular myocytes of neonatal rat aged 2 d are isolated under asepsis condition, then the myocytes are digested with mixture of digestive enzymes (0.06% trypsin and 0.1% type II collagenase mixed in equal amount) for multiple times in a short time. Cardiac myocytes are purified using differential adhesion method. […] The cells are cultured for 24 hours, then the supernatant is discarded, and the cells are washed with PBS three times. All of the cells are classified into contrast group, hypoxia/reoxygenation injury group, hypoxia/reoxygenation model+compatible composition group. After pre-treatment for 24 h, all of the hypoxia/reoxygenation injury groups are placed in glucose-free Earle's solution which has been previously saturated with mixture of 95% N2+5% CO2 for 1 hour. The cells are cultured in hypoxic condition for 6 h at 37° C. in constant-temperature incubator introduced with the mixture of 95% N2+5% CO^2. Then the hypoxia treated cells are subjected to reoxygenation in normal condition for 5 h with the high glucose medium DMEM (containing 10% FBS) which has been previously saturated with mixture of 95% air+5% CO2. At the same time, the cells are incubated with compatible compositions. After treating the experimental groups of cells, the supernatant is collected; the pH of supernatant of culture medium is measured directly with pH meter.

[3] = system: rat primary cardiac myocytes; test: LDH leak of rat primary cardiac myocytes injured by nitrogen hypoxia/reoxygenation; type: cell-based; conditions: 30 μM; culture medium supernatant; hypoxia 6 h, reoxygenation 5 h
Procedure: Experiment Method: Wistar ventricular myocytes of neonatal rat aged 2 d are isolated under asepsis condition, then the myocytes are digested with mixture of digestive enzymes (0.06% trypsin and 0.1% type II collagenase mixed in equal amount) for multiple times in a short time. Cardiac myocytes are purified using differential adhesion method. […] The cells are cultured for 24 hours, then the supernatant is discarded, and the cells are washed with PBS three times. All of the cells are classified into contrast group, hypoxia/reoxygenation injury group, hypoxia/reoxygenation model+compatible composition group. After pre-treatment for 24 h, all of the hypoxia/reoxygenation injury groups are placed in glucose-free Earle's solution which has been previously saturated with mixture of 95% N2+5% CO2 for 1 hour. The cells are cultured in hypoxic condition for 6 h at 37° C. in constant-temperature incubator introduced with mixture of 95% N2+[…]. Then the hypoxia treated cells are subjected to reoxygenation in normal condition for 5 h with the high glucose medium DMEM (containing 10% FBS) which has been previously saturated with mixture of 95% air+[…]. At the same time, the cells are incubated with compatible compositions. After treating the experimental groups of cells, the supernatant is collected; the content of LDH leak in supernatant of culture medium is measured according to the steps of LDH kit.

[4] = system: myocardial ischemia-reperfusion injury (MIRI); conditions: previous studies; cited from earlier work
[5] = system: rat primary cardiac myocytes; test: MTT cell activity of rat primary cardiac myocytes injured by hypoxia/reoxygenation; type: cell-based; conditions: 30 μM, 24 h pre-treatment, hypoxia 6 h, reoxygenation 5 h
Procedure: Wistar ventricular myocytes of neonatal rat aged 2 d are isolated under asepsis condition, then the myocytes are digested with mixture of digestive enzymes (0.06% trypsin and 0.1% type II collagenase mixed in equal amount) for multiple times in a short time. Cardiac myocytes are purified using differential adhesion method. […] The cells are cultured for 24 hours, then the supernatant is discarded, and the cells are washed with PBS three times. […] After pre-treatment for 24 h, all of the hypoxia/reoxygenation injury groups are placed in glucose-free Earle's solution which has been previously saturated with mixture of 95% N2+5% CO2 for 1 hour. The cells are cultured in hypoxic condition for 6 h at 37° C. in constant-temperature incubator introduced with the mixture of 95% N2+5% CO2. Then the hypoxia treated cells are subjected to reoxygenation in normal condition for 5 h with the DMEM high glucose medium (containing 10% FBS) which has been previously saturated with mixture of 95% air+5% CO2. At the same time, the cells are incubated with the administration of compatible compositions. After treating the experimental groups of cells, 20 μg/ml MTT is added, and each experimental group is cultured for 4 h, then MTT is solved in 150 μl DMSO. OD of each well is read by ELISA meter at wavelength of 490 nm, and activity of cells is determined.

[6] = system: rat primary cardiac myocytes; test: ATP, ADP, AMP content (HPLC) of rat primary cardiac myocytes injured by nitrogen hypoxia/reoxygenation; type: cell-based; conditions: 30 μM, cell lysate supernatant
Procedure: Experiment method: Wistar ventricular myocytes of neonatal rat aged 2 d are isolated under asepsis condition, then the myocytes are digested with mixture of digestive enzymes (0.06% trypsin and 0.1% type II collagenase mixed in equal amount) for multiple times in a short time. Cardiac myocytes are purified using differential adhesion method. […] The cells are cultured for 24 hours, then the supernatant is discarded, and the cells are washed with PBS three times. All of the cells are classified into contrast group, hypoxia/reoxygenation injury group, hypoxia/reoxygenation model+compatible composition group. After pre-treatment for 24 h, all of the hypoxia/reoxygenation injury groups are placed in glucose-free Earle's solution which has been previously saturated with mixture of 95% N2+5% CO2 for 1 hour. The cells are cultured in hypoxic condition for 6 h at 37° C. in constant-temperature incubator introduced with the mixture of 95% N2+5% CO2. Then the hypoxia treated cells are subjected to reoxygenation in normal condition for 5 h with the high glucose medium DMEM (containing 10% FBS) which has been previously saturated with mixture of 95% air+5% CO2. At the same time, the cells are incubated with compatible compositions. After treating the experimental groups of cells, the culture solution is discarded. The cells are washed once with pre-cooled PBS. 500 μl pre-cooled 50% perchlorate solution is added in each well. Pyrolysis of cells take place on ice for 5 min. The cells are scrapped, 600 μl of 2.5 mol/L Na2CO3 solution is added, and pH is adjusted to 6.5. Pyrolysis mixture is collected in centrifuge tube and centrifuged in 4° C. Content of supernatant is determined by HPLC. […] The content is determined with HPLC method. The equipment is LC-2010C quaternionic pump high performance liquid chromatogram, analytical column is Diamonsil C18 column (250 mm×4.6 mm, 5 μm), detection wavelength: 260 nm, mobile phase is 0.05M phosphate buffer (pH 6.5), detector is UV-vis detector. Flow-rate of column is 0.8 ml/min, sample size is 20 μl, and analytical time is 12 min, the data is processed using LCsolution chromatography workstation (Japan, […]).

PTEN = PTEN (Homo sapiens, UniProt P60484); conditions: previous studies; cited from earlier work
PTEN, sequence (P60484 whole entry, species assumed): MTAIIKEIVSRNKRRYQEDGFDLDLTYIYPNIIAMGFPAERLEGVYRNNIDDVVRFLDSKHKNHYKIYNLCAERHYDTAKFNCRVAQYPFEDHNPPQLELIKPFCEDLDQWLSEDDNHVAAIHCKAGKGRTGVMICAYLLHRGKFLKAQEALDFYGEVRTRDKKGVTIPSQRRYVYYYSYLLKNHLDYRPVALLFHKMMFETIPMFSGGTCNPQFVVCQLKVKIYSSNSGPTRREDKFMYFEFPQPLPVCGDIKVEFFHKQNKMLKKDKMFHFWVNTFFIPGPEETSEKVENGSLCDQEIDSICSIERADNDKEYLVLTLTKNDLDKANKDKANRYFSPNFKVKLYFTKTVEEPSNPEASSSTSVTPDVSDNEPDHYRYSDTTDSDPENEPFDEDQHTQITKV

SHP-2 = target: T1, SHP-2 (Homo sapiens, UniProt Q06124); conditions: previous studies; cited from earlier work
T1 sequence (Q06124 1-593): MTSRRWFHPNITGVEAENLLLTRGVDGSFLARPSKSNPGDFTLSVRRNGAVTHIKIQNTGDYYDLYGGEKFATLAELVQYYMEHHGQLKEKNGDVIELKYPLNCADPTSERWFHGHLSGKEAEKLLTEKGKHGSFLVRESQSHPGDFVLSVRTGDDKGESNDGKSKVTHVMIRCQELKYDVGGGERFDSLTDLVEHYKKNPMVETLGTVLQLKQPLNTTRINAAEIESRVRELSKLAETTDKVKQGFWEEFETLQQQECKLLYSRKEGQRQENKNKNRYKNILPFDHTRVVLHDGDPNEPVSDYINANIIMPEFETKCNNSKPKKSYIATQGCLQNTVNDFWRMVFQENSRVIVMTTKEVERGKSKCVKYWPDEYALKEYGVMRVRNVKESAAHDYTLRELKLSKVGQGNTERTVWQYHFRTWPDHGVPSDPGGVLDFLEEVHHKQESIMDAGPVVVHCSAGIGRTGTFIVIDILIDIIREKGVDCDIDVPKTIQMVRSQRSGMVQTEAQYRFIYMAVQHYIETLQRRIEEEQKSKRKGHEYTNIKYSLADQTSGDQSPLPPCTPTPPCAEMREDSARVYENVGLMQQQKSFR

SMILES	protection rate of cell activity (%) [1] [%]	pH of supernatant [2]	Leak rate (%) of LDH [3] [%]	function of myocardial contraction [4]	mitochondrial membrane potential [4]	protection rate of cell activity (%) [5] [%]	ADP [6] [µg/mL]	AMP [6] [µg/mL]	ATP [6] [µg/mL]	level of cytoplasmic Ca2+ [4]	oxygen free radical damage [4]	activity of PTEN (PTEN)	heart rate [4]	mitochondrial Ca2+ [4]	activity of SHP-2 (SHP-2)
O=c1cc(-c2ccc(O)c(O)c2)oc2cc(O)cc(O)c12 [Luteilon, luteolin]	81.93 ± 7.18	7.11	122.37	improve	increase	68.08	15.38	7.59	102.88						
O=c1cc(-c2ccc(O)c(O)c2)oc2cc(O[C@@H]3O[C@H](CO)[C@@H](O)[C@H](O)[C@H]3O)cc(O)c12 [Luteolin-7-0-glucoside, luteolin-7-O-glucoside]	78.57 ± 4.54	7.08	115.18			71.17	17.12	8.97	69.45	reduce	prevent				
O=c1c(O)c(-c2ccc(O)cc2)oc2cc(O)cc(O)c12 [Kaempferol, kaempferol]	76.97 ± 6.67	7.10	111.25			69.22	17.15	7.15	84.72			inhibit	maintain	reduce	inhibit
